Read-outs that look alike come from different tables or passages of the source.
Columns and labels:
[1] = molecular target: T1, SIRT1 (Homo sapiens, UniProt Q96EB6); test: SIRT1 mass spectrometry (MS) based deacetylation assay; type: biochemical; settings: for FOLD ACT. MS: fold activation of SIRT1 as determined by MS
T1 sequence (Q96EB6 1-747): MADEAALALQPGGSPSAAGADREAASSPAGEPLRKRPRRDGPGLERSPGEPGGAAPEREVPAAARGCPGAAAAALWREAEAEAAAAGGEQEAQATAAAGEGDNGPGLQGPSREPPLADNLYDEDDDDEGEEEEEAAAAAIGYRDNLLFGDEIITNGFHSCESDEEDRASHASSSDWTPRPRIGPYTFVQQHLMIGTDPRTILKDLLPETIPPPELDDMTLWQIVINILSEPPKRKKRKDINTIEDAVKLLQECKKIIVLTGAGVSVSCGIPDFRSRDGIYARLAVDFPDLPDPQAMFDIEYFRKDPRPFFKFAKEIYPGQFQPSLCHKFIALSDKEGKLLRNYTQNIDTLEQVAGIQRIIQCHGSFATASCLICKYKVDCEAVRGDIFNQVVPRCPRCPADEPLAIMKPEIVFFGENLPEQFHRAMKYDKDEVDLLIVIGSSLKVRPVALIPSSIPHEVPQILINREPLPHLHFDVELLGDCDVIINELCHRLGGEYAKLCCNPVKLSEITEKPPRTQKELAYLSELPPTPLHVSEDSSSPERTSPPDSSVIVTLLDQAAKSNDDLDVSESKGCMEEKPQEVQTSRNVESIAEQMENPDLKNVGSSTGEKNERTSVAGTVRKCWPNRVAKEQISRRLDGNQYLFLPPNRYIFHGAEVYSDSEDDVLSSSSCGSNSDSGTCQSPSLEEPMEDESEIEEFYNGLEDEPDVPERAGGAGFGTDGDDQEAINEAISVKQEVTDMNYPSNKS

[2] = tested on: NCI-H358 cells; test: Cellular ATP Assay (ATPLite 1Step normalized to AlamarBlue viability); type: cell-based; settings: for EC50 / IC50: Homo sapiens; for IC50: compounds that lowered intracellular ATP levels
Method: Cellular ATP levels are an indirect measurement of cellular metabolic rates and, by extension, mitochondrial function. […] The ATP assay is combined with a cellular viability assay so that cellular ATP levels can be normalized to viable cells. Cellular ATP levels were measured using the ATPLite 1Step Kit (PerkinElmer) and cellular viability was measured using the cell permeable dye, AlamarBlue™.
The Cellular ATP Assay is a multiplexed assay that measures both ATP levels and viability of a given cell sample. This assay is run in a 96-well Assay Plate and data are reported as the [ATP]/viability for each well in the Assay Plate.
The ATPLite 1 Step™ Kit is a single-step luminescent cell-based assay for detection of ATP. The kit contains lyophilized substrate mixture, comprised of D-luciferin and the firefly (Photinus pyralis) enzyme luciferase. Additionally, the kit contains a detergent-based reconstitution buffer that induces the lysis of cellular membranes. The luciferase in the assay mixture catalyzes a reaction between the free cellular ATP and D-luciferin to produce bioluminescence according to the schematic reaction outlined below. The amount of light produced is proportional to the cellular ATP concentration.
The AlamarBlue™ Assay is a single-step assay that utilizes a soluble, non-toxic, cell permeable dye that is added to cell growth media. This dye undergoes electron reduction in viable cells but not dead cells. The reduced dye product gives a fluorescent signal which can be monitored with a fluorescence plate reader (excitation 545 nm and emission 575 nm). The amount of fluorescence generated in a given well is proportional to the number of viable cells. The viability signal generated by this assay is used to normalize the ATP signal from the ATPLite 1Step™ assay results.
The material was dissolved in 100% vehicle (DMSO) to yield a final concentration of 10 mM (stock solution). The stock solution was serially diluted with 100% DMSO as described in SOP 7.10.
In this assay NCI-H358 cells (obtained from the American Tissue Culture Collection, ATCC) were seeded in 96 well microplates (10^4 cells/well). The NCI-H358 Growth Culture Media consists of RPMI 1640 Media supplemented with 10% FBS, […] streptomycin, and 100 units/mL penicillin. […] After 48 hours of compound treatment under cell growth conditions, plates were removed from incubator, and 15 μl of AlamarBlue™ dye was added to each well. Cell microplates were incubated with dye for 2 hours under growth conditions, and fluorescence was subsequently measured using a plate reader. Media containing AlamarBlue™ was removed, and plates were washed in 100 μl of PBS per well. This wash was removed, and 200 μl of 1×ATPLite 1Step reagent was added to each well. Luminescence was then measured using a plate reader. The ATP signal for each well, measured by the luminescence scan, was normalized to its corresponding cell viability value, measured by the fluorescence scan, to generate the average ATP level per viable cell unit (ATP/vCell). The ATP/vCell for each treatment was then normalized to the average vehicle ATP/vCell for its respective cell microplate, yielding the normalized ATP/vCell (norm. ATP/vCell). Finally, the norm. ATP/vCell for each unique treatment was averaged across plate replicates, generating the average norm. ATP/vCell.
Each of these ATP levels was normalized to the cell viability in the corresponding treatment well, generating the ATP/vCell value. Each ATP/vCell value was subsequently normalized to its average Vehicle ATP/vCell values for its respective cell microplate.
Data are represented as the normalized ATP/vCell (arbitrary units). […] These values represent an average of three plate replicates.
A number of compounds were screened for their affect on ATP levels in the assay as described in Example 5. […] NA means that the compound was not tested using the indicated assay.

[3] = molecular target: T1, SIRT1; test: SIRT1 fluorescence polarization (FP) deacetylation assay with p53-based peptide substrates; type: biochemical; settings: Sirt1 Inhibitors
Method: A fluorescence polarization or mass spectrometry based assay was used to identify modulators of SIRT1 activity. The same assay may be used to identify modulators of any sirtuin protein. The fluorescence polarization assays utilizes one of two different peptides based on a fragment of p53, a known sirtuin deacetylation target. Compounds 1-18 were tested using a substrate containing peptide 1 having 14 amino acid residues as follows: […](Ac)NleSTEG (SEQ ID NO: 1) wherein K(Ac) is an acetylated lysine residue and Nle is a norleucine. The peptide is labeled with the fluorophore MR121 (excitation 635 nm/emission 680 nm) at the C-terminus and biotin at the N-terminus. The sequence of the peptide substrate is based on p53 with several modifications. In particular, all arginine and leucine residues other than the acetylated lysine have replaced with serine so that the peptide is not susceptible to trypsin cleavage in the absence of deacetylation. In addition, the methionine residue naturally present in the sequence has been replaced with the norleucine because the methionine may be susceptible to oxidation during synthesis and purification. […] This peptide is labeled with the fluorophore MR121 (excitation 635 nm/emission 680 nm) at the C-termini and biotin at the N-termini. The sequence of the peptide substrates are based on p53 with several modifications. In particular, all arginine and leucine residues other than the acetylated lysine residues have replaced with serine so that the peptides are not susceptible to trypsin cleavage in the absence of deacetylation. In addition, the methionine residues naturally present in the sequences have been replaced with the norleucine because the methionine may be susceptible to oxidation during synthesis and purification. […] The peptide is labeled with the fluorophore 5TMR (excitation 540 nm/emission 580 nm) at the C-terminus. The sequence of the peptide substrate is also based on p53 with several modifications. In addition, the methionine residue naturally present in the sequence was replaced with the norleucine because the methionine may be susceptible to oxidation during synthesis and purification.
The peptide substrates were exposed to a sirtuin protein in the presence of NAD^+ to allow deacetylation of the substrate and render it sensitive to cleavage by trypsin. Trypsin was then added and the reaction was carried to completion (i.e., the deacetylated substrate is cleaved) releasing the MR121 or 5TMR fragment. Streptavidin is then added to the reaction where it can bind both the uncleaved substrate (i.e., any remaining acetylated substrate) and the non-fluorescent portion of the cleaved peptide substrate (i.e., the biotin containing fragment). The fluorescence polarization signal observed for the full length peptide substrates bound to streptavidin was higher than the fluorescence polarization signal observed for the released MR121 or 5TMR C-terminal fragment. In this way, the fluorescence polarization obtained is inversely proportional to the level of deacetylation (e.g., the signal is inversely proportional to the activity of the sirtuin protein). Results were read on a microplate fluorescence polarization reader (Molecular Devices Spectramax MD) with appropriate excitation and emission filters.
The fluorescence polarization assays using peptide 1 was conducted as follows: 0.5 μM peptide substrate and 150 μM βNAD^+ is incubated with 0.1 μg/mL of SIRT1 for 60 minutes at 37° C. in a reaction buffer (25 mM Tris-acetate pH8, 137 mM Na—Ac, 2.7 mM K—Ac, 1 mM Mg—Ac, 0.05% Tween-20, 0.1% Pluronic F127, 10 mM CaCl2, 5 mM DTT, 0.025% BSA, 0.15 mM Nicotinamide). Test compounds 1-18 were solubilized in DMSO and added to the reaction at 11 concentrations ranging from 0.7 μM to 100 μM. […]

[4] = SIRT1 activation, mass spectrometry assay, read-out: ED50 MS ASSAY
[5] = compounds that raised intracellular ATP levels, read-out: ED50 ATP ASSAY

Structure (SMILES)	EC50 [1, 4] [µM]	FOLD ACT. MS [1]	EC50 [2, 5] [µM]	also measured
Cc1nc(-c2cccc(NC(=O)c3cccc(N(C)C)c3)c2)cs1 [Compound 79]	> 150	–	< 50	–
COc1cccc(C(=O)Nc2cccc(-c3nc4ncccc4o3)c2)c1C [Compound 49]	5 to 50	B (B (Fold Activation <250%))	< 50	–
N#Cc1ccc(C(=O)Nc2ccc(-c3nc4ncccc4o3)cc2)cc1 [Compound 26]	–	–	–	IC50 [3]: 51 to 100 µM
COc1cc(C(=O)Nc2cccc(-c3nc4cc(Cl)cc(Cl)c4o3)c2)cc(OC)c1OC [Compound 123]	–	–	> 150	–
COc1cc(NC(=O)c2cccc(-c3nc4ncccc4o3)c2)cc(OC)c1OC [Compound 102, 3-(oxazolo[4,5-b]pyridin-2-yl)-N-(3,4,5-trimethoxyphenyl)benzamide]	5 to 50	A (A (Fold activation >250%))	< 50	–
COc1cc(C(=O)Nc2cccc(-c3nc4ccncc4s3)c2)cc(OC)c1OC [Compound 115]	5 to 50	A (A (Fold activation >250%))	> 150	–
COc1cc(C(=O)Nc2ccccc2-c2nc3ncccc3o2)cc(OC)c1OC [Compound 106]	< 5	B (B (Fold Activation <250%))	< 50	–
Oc1ccc(C=Cc2cc(O)cc(O)c2)cc1 [resveratrol, reference compound]	–	–	–	maximum increase in cellular ATP levels ([2]; 48 hours treatment, at 50 μM resveratrol, normalized ATP/vCell): 3.0 fold; EC50 ([2]; 48 hours, 50% of the maximum increase in normalized ATP/vCell, read-out: EC50 ATP): 29 µM
O=C(Nc1ccc2c(c1)OCO2)N1CCCN(c2nc3ccccc3o2)CC1 [Compound 90]	–	–	> 150	–
COc1cccc(OC)c1C(=O)Nc1cccc(-c2nc3ccccc3s2)c1 [Compound 120]	–	–	< 50	–
COc1cc(C(=O)Nc2cc(CO)cc(-c3nc4ccncc4s3)c2)cc(OC)c1OC [Compound 135]	< 5	B (B (Fold Activation <250%))	< 50	–
c1cc(Nc2nc3ccccc3o2)cc(-c2nc3ncccc3o2)c1 [Compound 93]	5 to 50	B (B (Fold Activation <250%))	> 150	–
c1cc(Nc2nc3ccccc3o2)nc(-c2nc3ncccc3o2)c1 [Compound 105]	< 5	B (B (Fold Activation <250%))	< 50	–
Cc1nc(-c2cccc(Nc3nc4ccccc4o3)c2)cs1 [Compound 92]	5 to 50	B (B (Fold Activation <250%))	–	IC50 [2]: 51 to 100 µM
O=C(Nc1ccc2c(c1)OCO2)Nc1cc(-c2nc3ccccc3o2)ccn1 [Compound 86, 1-Benzo[1,3]dioxol-5-yl-3-(4-benzoxazol-2-yl-pyridin-2-yl)-urea]	–	–	< 50	EC50 [1]: > 150 µM

Second part, led by results:

EC50 [1, 4] [µM]	FOLD ACT. MS [1]	Structure (SMILES)	EC50 [2, 5] [µM]	also measured
> 150	–	CN(C)c1cccc(C(=O)N2CCCN(c3nc4ccccc4o3)CC2)c1 [Compound 89]	–	IC50 [2]: < 50 µM
5 to 50	A (A (Fold activation >250%))	COc1ccc(NC(=O)c2cccc(-c3nc4ncccc4o3)c2)cc1OC [Compound 101]	101 to 150	–
< 5	B (B (Fold Activation <250%))	CN(C)c1cccc(C(=O)Nc2ccccc2-c2nc3ncccc3o2)c1 [Compound 97]	< 50	–
> 150	–	COc1cc(C(=O)N2CCCN(c3nc4ccccc4o3)CC2)cc(OC)c1OC [Compound 91]	–	IC50 [2]: < 50 µM
5 to 50	A (A (Fold activation >250%))	COc1ccc(C(=O)Nc2cccc(-c3nc4cc(C)ccc4[nH]3)c2)cc1OC [Compound 117]	–	IC50 [2]: 51 to 100 µM
5 to 50	B (B (Fold Activation <250%))	COc1ccc(NC(=O)c2cccc(-c3nc4ncccc4o3)c2)c(OC)c1 [Compound 100]	< 50	–
< 5	A (A (Fold activation >250%))	O=C(Nc1cccc(-c2nc3ccncc3s2)c1)Nc1ccc2c(c1)OCO2 [Compound 99]	< 50	–
< 5	B (B (Fold Activation <250%))	c1cc(Nc2nc3ccccc3s2)nc(-c2nc3ncccc3o2)c1 [Compound 104]	< 50	–
